Experimental data from patent US6951889B2, “2-amino-2-alkyl-5 heptenoic and heptynoic acid derivatives useful as nitric oxide synthase inhibitors” (Pharmacia Corporation, priority 2000, dated 2005).

What was measured:
[1] = test system: LPS-induced increase in plasma nitrite/nitrate levels; assay: In vivo assay in endotoxin-treated rats; conditions: Rattus norvegicus, po, administered orally 0.5-1 hours prior to LPS, plasma nitrite/nitrate 5 hours following LPS, read-out: ED50 for inhibition of the LPS-induced increase in plasma nitrite/nitrate levels
Experimental: Compounds are administered orally 0.5-1 hours prior to LPS administration and plasma nitrite/nitrate levels are determined 5 hours following LPS administration.

[2] = test system: nitrite production in human cartilage explants induced with recombinant human IL-1β; assay: Human cartilage explant assay; format: cell-based; conditions: six concentrations of inhibitor, read-out: IC50 inhibition of nitrite production
Experimental: Bone pieces are rinsed twice with Dulbecco's Phosphate Buffered Saline (GibcoBRL) and once with Dulbecco's Modified Eagles Medium (GibcoBRL) and placed into a petri dish with phenol red free Minimum Essential Medium (MEM) (GibcoBRL). Cartilage was cut into small explants of approximately 15-45 mg in weight and one or two explants per well are placed into either 96 or 48 well culture plates with 200-500 μL of culture media per well. The culture media was either a custom modification of Minimum Essential Medium(Eagle) with Earle's salts (GibcoBRL) prepared without L-Arginine, without L-Glutamine and without phenol red or a custom modification of serumless Neuman and Tytell (GibcoBRL) medium prepared without L-arginine, without insulin, without ascorbic acid, without L-glutamine and without phenol red. […]
The day old supernatant is then discarded and replaced with fresh culture media containing recombinant human IL-1β and compound and incubated for another 20-24 hours. This supernatant is analyzed for nitrite with a fluorometric assay (Misko et al, Anal. Biochem., 214, 11-16, 1993). […] IC50 values (Table III) are determined from plotting the percent inhibition of nitrite production at six different concentrations of inhibitor.

SMILES | ED50 [1] [mg/kg] | IC50 [2] [µM]
CC(=N)NC/C(F)=C\CC[C@](C)(N)C(=O)O.Cl.Cl [Example 1, (2S,5E)-2-amino-2-methyl-6-fluoro-7-[(1-iminoethyl)amino]-5-heptenoic acid, Dihydrochloride] | 0.4 | 0.4
CC(=N)NC/C=C\CC[C@](C)(N)C(=O)O.Cl.Cl [Example 14, (2S,5Z)-2-amino-2-methyl-7-[(1-iminoethyl)amino]-5-heptenoic acid, Dihydrochloride] | 0.3 | 0.8
